Measurements from ChEMBL document CHEMBL4346757, “Synthesis and biological evaluation of 7-methoxy-1-(3,4,5-trimethoxyphenyl)-4,5-dihydro-2H-benzo[e]indazoles as new colchicine site inhibitors” (Bioorg Med Chem Lett, 2019).

How the values were obtained:
Format in all cases: functional
BT-549 [1] = assay: Growth inhibition of human BT549 cells assessed as cell growth at 0.1 uM after 48 hrs by SRB assay relative to control; details: BT-549, 48 h, read-out: Activity
SK-OV-3 = assay: Growth inhibition of human SKOV3 cells assessed as cell growth at 0.1 uM after 48 hrs by SRB assay relative to control; details: SK-OV-3, 48 h, read-out: Activity
UACC-62 = assay: Growth inhibition of human UACC62 cells assessed as cell growth at 10 uM after 48 hrs by SRB assay relative to control; details: UACC-62, 48 h, read-out: Activity
DU-145 = assay: Cytotoxicity against human DU145 cells assessed as growth inhibition after 48 hrs by SRB assay; details: DU-145, 48 h
BT-549 [2] = assay: Growth inhibition of human BT549 cells assessed as cell growth at 100 uM after 48 hrs by SRB assay relative to control; details: BT-549, 48 h, read-out: Activity
A549 = assay: Cytotoxicity against human A549/ATCC cells assessed as growth inhibition after 48 hrs by SRB assay; details: A549, 48 h
NCI/ADR-RES = assay: Growth inhibition of human NCI-ADR-RES cells assessed as cell growth at 100 uM after 48 hrs by SRB assay relative to control; details: read-out: Activity
SF-539 [3] = assay: Growth inhibition of human SF539 cells assessed as cell growth at 0.1 uM after 48 hrs by SRB assay relative to control; details: SF-539, 48 h, read-out: Activity
HCT-116 [4] = assay: Cytotoxicity against human HCT116 cells assessed as growth inhibition after 48 hrs by SRB assay; details: HCT-116, 48 h
SK-MEL-2 = assay: Cytotoxicity against human SK-MEL-2 cells assessed as growth inhibition after 48 hrs by SRB assay; details: SK-MEL-2, 48 h
IGROV-1 = assay: Growth inhibition of human IGROV1 cells assessed as cell growth at 0.1 uM after 48 hrs by SRB assay relative to control; details: IGROV-1, 48 h, read-out: Activity
NCI-H460 = assay: Growth inhibition of human NCI-H460 cells assessed as cell growth at 0.1 uM after 48 hrs by SRB assay relative to control; details: NCI-H460, 48 h, read-out: Activity
RPMI-8226 [5] = assay: Growth inhibition of human RPMI8226 cells assessed as cell growth at 0.1 uM after 48 hrs by SRB assay relative to control; details: RPMI-8226, 48 h, read-out: Activity
HOP-92 [6] = assay: Growth inhibition of human HOP92 cells assessed as cell growth at 100 uM after 48 hrs by SRB assay relative to control; details: HOP-92, 48 h, read-out: Activity
HCT-116 [7] = assay: Growth inhibition of human HCT116 cells assessed as cell growth at 0.01 uM after 48 hrs by SRB assay relative to control; details: HCT-116, 48 h, read-out: Activity
BT-549 [8] = assay: Growth inhibition of human BT549 cells assessed as cell growth at 0.01 uM after 48 hrs by SRB assay relative to control; details: BT-549, 48 h, read-out: Activity
NCI-H322M = assay: Cytotoxicity against human NCI-H322M cells assessed as growth inhibition after 48 hrs by SRB assay
A498 [9] = assay: Growth inhibition of human A498 cells assessed as cell growth at 0.01 uM after 48 hrs by SRB assay relative to control; details: A498, 48 h, read-out: Activity
HOP-92 [10] = assay: Growth inhibition of human HOP92 cells assessed as cell growth at 0.1 uM after 48 hrs by SRB assay relative to control; details: HOP-92, 48 h, read-out: Activity
BT-549 [11] = assay: Cytotoxicity against human BT549 cells assessed as growth inhibition after 48 hrs by SRB assay; details: BT-549, 48 h
MDA-MB-231 = assay: Growth inhibition of human MDA-MB-231/ATCC cells assessed as cell growth at 10 uM after 48 hrs by SRB assay relative to control; details: MDA-MB-231, 48 h, read-out: Activity
HT-29 = assay: Growth inhibition of human HT-29 cells assessed as cell growth at 0.01 uM after 48 hrs by SRB assay relative to control; details: HT-29, 48 h, read-out: Activity
T47D = assay: Growth inhibition of human T47D cells assessed as cell growth at 1 uM after 48 hrs by SRB assay relative to control; details: read-out: Activity
SF-539 [12] = assay: Growth inhibition of human SF539 cells assessed as cell growth at 1 uM after 48 hrs by SRB assay relative to control; details: SF-539, 48 h, read-out: Activity
EKVX = assay: Growth inhibition of human EKVX cells assessed as cell growth at 0.1 uM after 48 hrs by SRB assay relative to control; details: read-out: Activity
K562 = assay: Cytotoxicity against human K562 cells assessed as growth inhibition after 48 hrs by SRB assay; details: K562, 48 h
RPMI-8226 [13] = assay: Growth inhibition of human RPMI8226 cells assessed as cell growth at 100 uM after 48 hrs by SRB assay relative to control; details: RPMI-8226, 48 h, read-out: Activity
A498 [14] = assay: Growth inhibition of human A498 cells assessed as cell growth at 0.1 uM after 48 hrs by SRB assay relative to control; details: A498, 48 h, read-out: Activity
OVCAR-3 = assay: Growth inhibition of human OVCAR3 cells assessed as cell growth at 0.1 uM after 48 hrs by SRB assay relative to control; details: OVCAR-3, 48 h, read-out: Activity
U-251 = assay: Growth inhibition of human U251 cells assessed as cell growth at 0.1 uM after 48 hrs by SRB assay relative to control; details: U-251, 48 h, read-out: Activity
[15] = read-out: LC50 (the source's name)
[16] = read-out: pLC50 (the source's name) (converted)

COc1ccc2c(c1)CCc1n[nH]c(-c3cc(OC)c(OC)c(OC)c3)c1-2
growth at 0.1 µM (BT-549 [1]): 1% | growth at 0.1 µM (SK-OV-3): -2% | growth at 10 µM (UACC-62): 10% | GI50 (DU-145; read-out: GI50): < 0.01 µM | CC50 (DU-145; [15]): > 100 µM | TGI (DU-145; read-out: TGI): > 100 µM | GI50 (DU-145; read-out: pGI50 (converted)): < 0.01 µM | CC50 (DU-145; [16]): > 100 µM | TGI (DU-145; read-out: pTGI): > 100 µM | growth at 100 µM (BT-549 [2]): -36% | GI50 (A549; read-out: GI50): < 0.01 µM | CC50 (A549; [15]): > 100 µM | TGI (A549; read-out: TGI): 19.5 µM | GI50 (A549; read-out: pGI50 (converted)): < 0.01 µM | CC50 (A549; [16]): > 100 µM | TGI (A549; read-out: pTGI (converted)): 19.5 µM | growth at 100 µM (NCI/ADR-RES): -31% | growth at 0.1 µM (SF-539 [3]): -6% | GI50 (HCT-116 [4]; read-out: GI50): < 0.01 µM | CC50 (HCT-116 [4]; [15]): 48.9 µM | TGI (HCT-116 [4]; read-out: TGI): 1.16 µM | GI50 (HCT-116 [4]; read-out: pGI50 (converted)): < 0.01 µM | CC50 (HCT-116 [4]; [16]): 49 µM | TGI (HCT-116 [4]; read-out: pTGI (converted)): 1.15 µM | GI50 (SK-MEL-2; read-out: GI50): < 0.01 µM | LC50 (SK-MEL-2; read-out: LC50): 98.7 µM | TGI (SK-MEL-2; read-out: TGI): 26.8 µM | GI50 (SK-MEL-2; read-out: pGI50 (converted)): < 0.01 µM | LC50 (SK-MEL-2; read-out: pLC50 (converted)): 97.7 µM | TGI (SK-MEL-2; read-out: pTGI (converted)): 26.9 µM | growth at 0.1 µM (IGROV-1): 29% | growth at 0.1 µM (NCI-H460): 2% | growth at 0.1 µM (RPMI-8226 [5]): 51% | growth at 100 µM (HOP-92 [6]): -50% | growth at 0.01 µM (HCT-116 [7]): 7% | growth at 0.01 µM (BT-549 [8]): 4% | GI50 (NCI-H322M; read-out: GI50): < 0.01 µM | CC50 (NCI-H322M; [15]): > 100 µM | TGI (NCI-H322M; read-out: TGI): 39.5 µM | GI50 (NCI-H322M; read-out: pGI50 (converted)): < 0.01 µM | CC50 (NCI-H322M; [16]): > 100 µM | TGI (NCI-H322M; read-out: pTGI (converted)): 39.8 µM | growth at 0.01 µM (A498 [9]): -11% | growth at 0.1 µM (HOP-92 [10]): 30% | GI50 (BT-549 [11]; read-out: GI50): < 0.01 µM | LC50 (50% lethal concentration) (BT-549 [11]; read-out: LC50): > 100 µM | TGI (BT-549 [11]; read-out: TGI): 10.6 µM | GI50 (BT-549 [11]; read-out: pGI50 (converted)): < 0.01 µM | LC50 (50% lethal concentration) (BT-549 [11]; read-out: pLC50 (converted)): > 100 µM | TGI (BT-549 [11]; read-out: pTGI (converted)): 10.7 µM | growth at 10 µM (MDA-MB-231): 33% | growth at 0.01 µM (HT-29): 5% | growth at 1 µM (T47D): 69% | growth at 1 µM (SF-539 [12]): -12% | growth at 0.1 µM (EKVX): 53% | GI50 (K562; read-out: GI50): < 0.01 µM | CC50 (K562; [15]): > 100 µM | TGI (K562; read-out: TGI): > 100 µM | GI50 (K562; read-out: pGI50 (converted)): < 0.01 µM | CC50 (K562; [16]): > 100 µM | TGI (K562; read-out: pTGI): > 100 µM | growth at 100 µM (RPMI-8226 [13]): 15% | growth at 0.1 µM (A498 [14]): -15% | growth at 0.1 µM (OVCAR-3): 12% | growth at 0.1 µM (U-251): 10%
